Test results: patent publication US11566057B2, “Long-acting co-agonists of the glucagon and GLP-1 receptors” (Merck Sharp & Dohme Corp., priority 2017, dated 2023)
Numbered stars: 1 amine (or outer) side, 2 acyl side, 3 side chain; on linkers, the order of the positions; unused ones are H or OH. Square brackets hold non-standard residues; d marks the D form. Side chains are listed from the residue outwards. Peptide text beside a SMILES is read from it. * marks the point of attachment. Phe(4-CH2NH2) = NCc1ccc(C[C@H](N)C(=O)O)cc1; C18 diacid = O=C(O)CCCCCCCCCCCCCCCCC(=O)*; αMeW = C[C@](N)(Cc1c[nH]c2ccccc12)C(=O)O; C16 diacid = O=C(O)CCCCCCCCCCCCCCC(=O)*; γGlu = O=C(O)[C@H](CCC(=O)[*:2])N[*:1]; Met(O2) = CS(=O)(=O)CC[C@H](N)C(=O)O; αMeD = C[C@](N)(CC(=O)O)C(=O)O; AEEA = NCCOCCOCC(=O)O; Aib = CC(C)(N)C(=O)O

What was measured:
[1] = target: T1, human GCGR (Homo sapiens, UniProt P47871); assay: cAMP activity assay at the Glucagon receptor (GCGR); assay type: cell-based; details: for hGCGR/hGLP1R (hTone): ratio of GCGR EC50 to GLP1R EC50; for EC50: summary statement: EC50 at each of the glucagon and GLP-1 receptors, read-out: EC50 at the glucagon receptor
T1 construct: expressed in transfected cells; growth medium holds Blasticidin and Hygromycin
How it was run: (§1)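 Peptides serially diluted from DMSO (10 points) and added to frozen-stock cells bearing human GLP1R (10,000 cells/well) or GCGR (30,000 cells/well), 1 h at RT, dark. EC50 by four-parameter logistic fit of HitHunter cAMPXS luminescence, read following overnight RT incubation.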

[2] = target: T2, human GLP1R (Homo sapiens, UniProt P43220); assay: cAMP activity assay at the GLP-1 receptor (GLP1R); assay type: cell-based; details: summary statement: EC50 at each of the glucagon and GLP-1 receptors; read-out: EC50 at the GLP-1 receptor
T2 construct: expressed in transfected cells; growth medium holds Blasticidin and Hygromycin
How it was run: as §1

T1 sequence (P47871 26-477): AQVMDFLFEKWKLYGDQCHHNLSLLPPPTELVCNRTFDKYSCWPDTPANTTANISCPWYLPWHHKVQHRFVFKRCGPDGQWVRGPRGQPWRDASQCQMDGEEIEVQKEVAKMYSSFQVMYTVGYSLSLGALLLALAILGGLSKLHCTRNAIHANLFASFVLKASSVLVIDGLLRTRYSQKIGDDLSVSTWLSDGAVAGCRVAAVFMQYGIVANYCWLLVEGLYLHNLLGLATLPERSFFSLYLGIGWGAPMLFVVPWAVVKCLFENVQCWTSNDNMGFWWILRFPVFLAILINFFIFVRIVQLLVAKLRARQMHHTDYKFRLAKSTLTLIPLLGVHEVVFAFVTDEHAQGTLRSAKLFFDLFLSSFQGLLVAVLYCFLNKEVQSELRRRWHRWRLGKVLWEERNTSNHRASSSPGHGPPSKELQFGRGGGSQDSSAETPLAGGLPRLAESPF
T2 sequence (P43220 24-463): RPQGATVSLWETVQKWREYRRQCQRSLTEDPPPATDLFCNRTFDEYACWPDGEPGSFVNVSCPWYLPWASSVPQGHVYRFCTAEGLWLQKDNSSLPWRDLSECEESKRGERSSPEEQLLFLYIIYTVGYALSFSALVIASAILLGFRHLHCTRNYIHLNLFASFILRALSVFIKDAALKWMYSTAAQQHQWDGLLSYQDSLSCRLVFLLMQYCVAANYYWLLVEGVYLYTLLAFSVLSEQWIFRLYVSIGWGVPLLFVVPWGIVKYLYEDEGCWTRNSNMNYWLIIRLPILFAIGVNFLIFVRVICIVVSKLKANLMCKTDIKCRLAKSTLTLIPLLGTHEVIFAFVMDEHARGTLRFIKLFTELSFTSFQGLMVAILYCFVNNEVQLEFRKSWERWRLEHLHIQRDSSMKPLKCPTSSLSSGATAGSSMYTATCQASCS

Row | SMILES | hGCGR/hGLP1R (hTone) [1] | EC50 [1] [nM] | EC50 [2] [nM]
1 | CC(C)C[C@H](NC(=O)[C@H](Cc1ccc(O)cc1)NC(=O)[C@H](CCCCN)NC(=O)[C@H](CO)NC(=O)[C@H](Cc1ccc(CNC(=O)COCCOCCNC(=O)CC[C@H](NC(=O)CCCCCCCCCCCCCCC(=O)O)C(=O)O)cc1)NC(=O)[C@H](CC(=O)O)NC(=O)[C@H](CO)NC(=O)[C@@H](NC(=O)[C@H](Cc1ccccc1)NC(=O)[C@@H](NC(=O)CNC(=O)[C@H](CCC(N)=O)NC(=O)C(C)(C)NC(=O)[C@@H](N)Cc1c[nH]cn1)[C@@H](C)O)[C@@H](C)O)C(=O)N[C@@H](CC(=O)O)C(=O)N[C@@H](C)C(=O)N[C@@H](CCCNC(=N)N)C(=O)N[C@@H](C)C(=O)N[C@@H](C)C(=O)N[C@@H](CCC(N)=O)C(=O)N[C@@H](CC(=O)O)C(=O)N[C@@H](Cc1ccccc1)C(=O)N[C@H](C(=O)N[C@@H](CCC(N)=O)C(=O)N[C@@H](Cc1c[nH]c2ccccc12)C(=O)N[C@@H](CC(C)C)C(=O)N[C@@H](CCS(C)(=O)=O)C(=O)N[C@@H](CC(=O)O)C(=O)N[C@H](C(N)=O)[C@@H](C)O)C(C)C [TP622] (H-H[Aib]QGTFTSD[Phe(4-CH2NH2)]([AEEA-γGlu-C16 diacid])SKYLDARAAQDFVQWL[Met(O2)]DT-NH2; N-terminus assumed) | 0.4 | < 5 | < 5
2 | CC(C)C[C@H](NC(=O)[C@H](Cc1ccc(O)cc1)NC(=O)[C@H](CCCCN)NC(=O)[C@H](CO)NC(=O)[C@H](Cc1ccc(CNC(=O)COCCOCCNC(=O)CC[C@H](NC(=O)CCCCCCCCCCCCCCCCC(=O)O)C(=O)O)cc1)NC(=O)[C@H](CC(=O)O)NC(=O)[C@H](CO)NC(=O)[C@@H](NC(=O)[C@H](Cc1ccccc1)NC(=O)[C@@H](NC(=O)CNC(=O)[C@H](CCC(N)=O)NC(=O)C(C)(C)NC(=O)[C@@H](N)Cc1c[nH]cn1)[C@@H](C)O)[C@@H](C)O)C(=O)N[C@@H](CC(=O)O)C(=O)N[C@@H](C)C(=O)N[C@@H](CCCNC(=N)N)C(=O)N[C@@H](C)C(=O)N[C@@H](C)C(=O)N[C@@H](CCC(N)=O)C(=O)N[C@@H](CC(=O)O)C(=O)N[C@@H](Cc1ccccc1)C(=O)N[C@H](C(=O)N[C@@H](CCC(N)=O)C(=O)N[C@@H](Cc1c[nH]c2ccccc12)C(=O)N[C@@H](CC(C)C)C(=O)N[C@@H](CCS(C)(=O)=O)C(=O)N[C@@H](CC(=O)O)C(=O)N[C@H](C(N)=O)[C@@H](C)O)C(C)C [TP623] (H-H[Aib]QGTFTSD[Phe(4-CH2NH2)]([AEEA-γGlu-C18 diacid])SKYLDARAAQDFVQWL[Met(O2)]DT-NH2) | 0.5 | < 5 | < 5
3 | CC(C)C[C@H](NC(=O)[C@H](Cc1ccc(O)cc1)NC(=O)[C@H](CCCCN)NC(=O)[C@H](CO)NC(=O)[C@H](Cc1ccc(CNC(=O)COCCOCCNC(=O)COCCOCCNC(=O)CC[C@H](NC(=O)CCCCCCCCCCCCCCCCC(=O)O)C(=O)O)cc1)NC(=O)[C@H](CC(=O)O)NC(=O)[C@H](CO)NC(=O)[C@@H](NC(=O)[C@H](Cc1ccccc1)NC(=O)[C@@H](NC(=O)CNC(=O)[C@H](CCC(N)=O)NC(=O)C(C)(C)NC(=O)[C@@H](N)Cc1c[nH]cn1)[C@@H](C)O)[C@@H](C)O)C(=O)N[C@@H](CC(=O)O)C(=O)N[C@@H](C)C(=O)N[C@@H](CCCNC(=N)N)C(=O)N[C@@H](C)C(=O)N[C@@H](C)C(=O)N[C@@H](CCC(N)=O)C(=O)N[C@@H](CC(=O)O)C(=O)N[C@@H](Cc1ccccc1)C(=O)N[C@H](C(=O)N[C@@H](CCC(N)=O)C(=O)N[C@@H](Cc1c[nH]c2ccccc12)C(=O)N[C@@H](CC(C)C)C(=O)N[C@@H](CCS(C)(=O)=O)C(=O)N[C@@](C)(CC(=O)O)C(=O)N[C@H](C(N)=O)[C@@H](C)O)C(C)C [TP624] (H-H[Aib]QGTFTSD[Phe(4-CH2NH2)]([AEEA-AEEA-γGlu-C18 diacid])SKYLDARAAQDFVQWL[Met(O2)][αMeD]T-NH2; N-terminus assumed) | 1.1 | < 5 | < 5
4 | CC(C)C[C@H](NC(=O)[C@H](Cc1ccc(O)cc1)NC(=O)[C@H](CCCCN)NC(=O)[C@H](CO)NC(=O)[C@H](Cc1ccc(CNC(=O)COCCOCCNC(=O)COCCOCCNC(=O)CC[C@H](NC(=O)CCCCCCCCCCCCCCCCC(=O)O)C(=O)O)cc1)NC(=O)[C@H](CC(=O)O)NC(=O)[C@H](CO)NC(=O)[C@@H](NC(=O)[C@H](Cc1ccccc1)NC(=O)[C@@H](NC(=O)CNC(=O)[C@H](CCC(N)=O)NC(=O)C(C)(C)NC(=O)[C@@H](N)Cc1c[nH]cn1)[C@@H](C)O)[C@@H](C)O)C(=O)N[C@@H](CC(=O)O)C(=O)N[C@@H](C)C(=O)N[C@@H](CCCNC(=N)N)C(=O)N[C@@H](C)C(=O)N[C@@H](C)C(=O)N[C@@H](CCC(N)=O)C(=O)N[C@@H](CC(=O)O)C(=O)N[C@@H](Cc1ccccc1)C(=O)N[C@H](C(=O)N[C@@H](CCC(N)=O)C(=O)N[C@@](C)(Cc1c[nH]c2ccccc12)C(=O)N[C@@H](CC(C)C)C(=O)N[C@@H](CCS(C)(=O)=O)C(=O)N[C@@H](CC(=O)O)C(=O)N[C@H](C(N)=O)[C@@H](C)O)C(C)C [TP625] (H-H[Aib]QGTFTSD[Phe(4-CH2NH2)]([AEEA-AEEA-γGlu-C18 diacid])SKYLDARAAQDFVQ[αMeW]L[Met(O2)]DT-NH2; N-terminus assumed) | 3.4 | < 5 | < 5
5 | CC(C)C[C@H](NC(=O)[C@H](Cc1ccc(O)cc1)NC(=O)[C@H](CCCCN)NC(=O)[C@H](CO)NC(=O)[C@H](Cc1ccc(O)cc1)NC(=O)[C@H](CC(=O)O)NC(=O)[C@H](CO)NC(=O)[C@@H](NC(=O)[C@H](Cc1ccccc1)NC(=O)[C@@H](NC(=O)CNC(=O)[C@H](CCC(N)=O)NC(=O)C(C)(C)NC(=O)[C@@H](N)Cc1c[nH]cn1)[C@@H](C)O)[C@@H](C)O)C(=O)N[C@@H](CC(=O)O)C(=O)N[C@@H](C)C(=O)N[C@@H](CCCNC(=N)N)C(=O)N[C@@H](C)C(=O)N[C@@H](C)C(=O)N[C@@H](CCCCNC(=O)COCCOCCNC(=O)CC[C@H](NC(=O)CCCCCCCCCCCCCCCCC(=O)O)C(=O)O)C(=O)N[C@@H](CC(=O)O)C(=O)N[C@@H](Cc1ccccc1)C(=O)N[C@H](C(=O)N[C@@H](CCC(N)=O)C(=O)N[C@@H](Cc1c[nH]c2ccccc12)C(=O)N[C@@H](CC(C)C)C(=O)N[C@@H](CCS(C)(=O)=O)C(=O)N[C@@H](CC(=O)O)C(=O)N[C@H](C(N)=O)[C@@H](C)O)C(C)C [TP626] (H-H[Aib]QGTFTSDYSKYLDARAAK([AEEA-γGlu-C18 diacid])DFVQWL[Met(O2)]DT-NH2; N-terminus assumed) | 0.6 | < 5 | < 5
